Here are results for 21 compounds from US20230295087A1, “AGONISTS OF ROR GAMMAt” (BRISTOL-MYERS SQUIBB COMPANY, priority 2019, published 2023).

In the experiment the target is T1, human RORgT (Homo sapiens, UniProt P51449).
T1 construct: expressed in transfected cells
T1 sequence (P51449 267-516): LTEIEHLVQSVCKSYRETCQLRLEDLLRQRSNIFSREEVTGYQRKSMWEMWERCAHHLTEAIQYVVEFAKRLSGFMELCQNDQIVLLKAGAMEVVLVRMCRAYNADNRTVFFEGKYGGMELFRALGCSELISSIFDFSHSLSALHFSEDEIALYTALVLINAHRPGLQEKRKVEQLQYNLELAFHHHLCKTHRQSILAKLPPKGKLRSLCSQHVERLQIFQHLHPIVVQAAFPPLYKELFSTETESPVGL
The experiment can be described thus: RORgT Gal4 Luciferase Reporter Gene Assay. The format is cell-based. The settings on record: engineered Jurkat cells overexpressing RORgT (LBD or full length) fused with Gal4 Luc reporter; 18 hours at 37° C.; luminescence. On the procedure: RORgT Gal4 Luciferase Reporter Gene Assay
25 µL of cryopreserved Jurkat cells over expressing ligand binding domain (LBD) of RORgT (aa267-516, NM_005060) and Gal4 Luc, or full length of human RORgT and Gal4 Luc, were plated in 384-well solid white cell culture plates (PerkinElmer 6007899), with a density of 10,000 cells/well in RPMI 1640 cell culture media (Gibco 11875-085). The media contained 0.1% BSA, 10 mM HEPES (Gibco 15360-080), […] Sodium Pyruvate (Gibco 11360-040), […] Hygromycin B (Invitrogen 10687-010), and […] Blasticidin (Invitrogen R210-01).
100 nL of compound at varying concentrations in 3-fold serial dilution, with final concentrations ranging from 40 µM to 0.67 nM, were added to the cells using Labcyte Echo 550. The compound and the cells were incubated for 18 hours at 37° C. in a cell culture incubator. Cells were then lysed with 15 uL of Steady-Glo Luciferase Assay reagent (Promega EZ550), followed by centrifuging the assay plates at 1500 RPM for 1 minute. Subsequently, the plates were read on the Envision (PerkinElmer). The inhibition of constitutive activity of RORgT achieved by graded concentrations of compound was calculated as a percentage of the luminescence signal window reduction over a control compound.
(In a reporter assay the amount or activity of a reporter protein is the signal.)
Compound `Cc1ccccc1Oc1ccc2c(c1)CC[C@H]1N(C(=O)C3(C)CCS(=O)(=O)CC3)CC[C@@]21S(=O)(=O)c1ccc(F)cc1` [Example 48, 4-[(3aR,9bR)-9b-(4-fluorobenzenesulfonyl)-7-(2-methylphenoxy)-1H,2H,3H,3aH,4H,5H,9bH-benzo[e]indole-3-carbonyl]-4-methyl-1λ^6-thiane-1,1-dione] returned an EC50 of 0.0075 µM.
As for `Cc1ccccc1Oc1ccc2c(c1)CC[C@H]1N(C(=O)C3CCS(=O)(=O)CC3)CC[C@@]21S(=O)(=O)c1ccc(F)cc1` [Example 49, 4-[(3aR,9bR)-9b-(4-fluorobenzenesulfonyl)-7-(2-methylphenoxy)-1H,2H,3H,3aH,4H,5H,9bH-benzo[e]indole-3-carbonyl]-1λ^6-thiane-1,1-dione], the concentration giving a half-maximal response (EC50) was 0.0018 µM.
In the case of `Cc1ccccc1Oc1ccc2c(c1)CC[C@H]1N(C(=O)[C@]3(C)CC[C@@H](C(=O)O)CC3)CC[C@@]21S(=O)(=O)c1ccc(F)cc1` [Example 50, (1r,4r)-4-[(3aR,9bR)-9b-(4-fluorobenzenesulfonyl)-7-(2-methylphenoxy)-1H,2H,3H,3aH,4H,5H,9bH-benzo[e]indole-3-carbonyl]-4-methylcyclohexane-1-carboxylic acid] it was 0.0068 µM; in that of `CC(=O)N1CCC(CN2CC[C@@]3(S(=O)(=O)c4ccc(F)cc4)c4ccc(OCc5c(F)cccc5C(F)(F)F)cc4CC[C@@H]23)CC1` [Example 51, 1-(4-{[(3aR,9bR)-7-{[2-fluoro-6-(trifluoromethyl)phenyl]methoxy} -9b-(4-fluorobenzenesulfonyl)-1H,2H,3H,3aH,4H,5H,9bH-benzo[e]indol-3-yl]methyl}piperidin-1-yl)ethan-1-one], 0.032 µM; in that of `CC(=O)N1CCC(C)(CN2CC[C@@]3(S(=O)(=O)c4ccc(F)cc4)c4ccc(OCc5c(F)cccc5C(F)(F)F)cc4CC[C@@H]23)CC1` [Example 52, 1-(4-{[(3aR,9bR)-7-{[2-fluoro-6-(trifluoromethyl)phenyl]methoxy} -9b-(4-fluorobenzenesulfonyl)-1H,2H3H,3aH,4H,5H,9bH-benzo[e]indol-3-yl]methyl}-4-methylpiperidin-1-yl)ethan-1-one], 0.024 µM.
The figure for `CC(C)(C)OC(=O)N1CC[C@@]2(S(=O)(=O)c3ccc(F)cc3)c3ccc(Cc4ccccc4)cc3CC[C@@H]12` [Example 53, ert-butyl (3aR,9bR)-7-benzyl-9b-(4-fluorobenzenesulfonyl)-1H,2H,3H,3aH,4H,5H,9bH-benzo[e]indole-3-carboxylate] is 0.016 µM; for `O=C(O)[C@H]1CC[C@H](C(=O)N2CC[C@@]3(S(=O)(=O)c4ccccc4)c4ccc(OCc5ccccc5)cc4CC[C@@H]23)CC1` [Example 54, (1r,4r)-4-[(3aR,9bR)-9b-(benzenesulfonyl)-7-(benzyloxy)-1H,2H,3H,3aH,4H,5H,9bH-benzo[e]indole-3-carbonyl]cyclohexane-1-carboxylic acid] it is 0.29 µM; for `CN1CCC(C(=O)N2CC[C@@]3(S(=O)(=O)c4ccccc4)c4ccc(OCc5c(Cl)cccc5Cl)cc4CC[C@@H]23)CC1=O` (stereo partly drawn) [Example 55, 4-[(3aR,9bR)-9b-(benzenesulfonyl)-7-[(2,6-dichlorophenyl)methoxy]-1H,2H,3H,3aH,4H,5H,9bH-benzo[e]indole-3-carbonyl]-1-methylpiperidin-2-one] it is 0.083 µM.
The figure for `O=C(CC1CCS(=O)(=O)CC1)N1CC[C@@]2(S(=O)(=O)c3ccccc3)c3ccc(OCc4c(Cl)cccc4Cl)cc3CC[C@@H]12` [Example 56, 4-{2-[(3aR,9bR)-9b-(benzenesulfonyl)-7-[(2,6-dichlorophenyl)methoxy]-1H,2H,3H,3aH,4H,5H,9bH-benzo[e]indol-3-yl]-2-oxoethyl}-1λ^6-thiane-1,1-dione] is 0.066 µM; for `CC(=O)N1CCC(C(=O)N2CC[C@@]3(S(=O)(=O)c4ccccc4)c4ccc(OCc5c(Cl)cccc5Cl)cc4CC[C@@H]23)CC1` [Example 57, 1-{4-[(3aR,9bR)-9b-(benzenesulfonyl)-7-[(2,6-dichlorophenyl)methoxy]-1H,2H,3H,3aH,4H,5H,9bH-benzo[e]indole-3-carbonyl]piperidin-1-yl}ethan-1-one] it is 0.013 µM.
`CS(=O)(=O)NCC(=O)N1CC[C@@]2(S(=O)(=O)c3ccccc3)c3ccc(OCc4c(Cl)cccc4Cl)cc3CC[C@@H]12` [Example 58, N-{2-[(3aR,9bR)-9b-(benzenesulfonyl)-7-[(2,6-dichlorophenyl)methoxy]-1H,2H,3H,3aH,4H,5H,9bH-benzo[e]indol-3-yl]-2-oxoethyl} methanesulfonamide] registered an EC50 of 0.587 µM.
The figure for `O=C(C1CCS(=O)(=O)C1)N1CC[C@@]2(S(=O)(=O)c3ccccc3)c3ccc(OCc4c(Cl)cccc4Cl)cc3CC[C@@H]12` (stereo partly drawn) [Example 59, 3-[(3aR,9bR)-9b-(benzenesulfonyl)-7-[(2,6-dichlorophenyl)methoxy]-1H,2H,3H,3aH,4H5H,9bH-benzo[e]indole-3-carbonyl]-1λ^6-thiolane-1,1-dione] is 0.016 µM; for `CS(=O)(=O)N1CCC(C(=O)N2CC[C@@]3(S(=O)(=O)c4ccccc4)c4ccc(OCc5c(Cl)cccc5Cl)cc4CC[C@@H]23)CC1` [Example 60, 4-[(3aR,9bR)-9b-(benzenesulfonyl)-7-[(2,6-dichlorophenyl)methoxy]-1H,2H,3H,3aH,4H,5H,9bH-benzo[e]indole-3-carbonyl]-1-methanesulfonylpiperidine] it is 0.01 µM; for `CN1CCC(C(=O)N2CC[C@@]3(S(=O)(=O)c4ccccc4)c4ccc(OCc5c(Cl)cccc5Cl)cc4CC[C@@H]23)CC1` [Example 61, 4-[(3aR,9bR)-9b-(benzenesulfonyl)-7-[(2,6-dichlorophenyl)methoxy]-1H,2H,3H,3aH,4H,5H,9bH-benzo[e]indole-3-carbonyl]-I-methylpiperidine] it is 0.076 µM.
Compound `NC(=O)N1CCC(C(=O)N2CC[C@@]3(S(=O)(=O)c4ccccc4)c4ccc(OCc5c(Cl)cccc5Cl)cc4CC[C@@H]23)CC1` [Example 62, 4-[(3aR,9bR)-9b-(benzenesulfonyl)-7-[(2,6-dichlorophenyl)methoxy]-1H,2H,3H,3aH,4H,5H,9bH-benzo[e]indole-3-carbonyl]piperidine-1-carboxamide] showed an EC50 of 0.015 µM.
`O=C(C1CCS(=O)(=O)N1)N1CC[C@@]2(S(=O)(=O)c3ccccc3)c3ccc(OCc4c(Cl)cccc4Cl)cc3CC[C@@H]12` (stereo partly drawn) [Example 63, 3-[(3aR,9bR)-9b-(benzenesulfonyl)-7-[(2,6-dichlorophenyl)methoxy]-1H,2H,3H,3aH,4H,5H,9bH-benzo[e]indole-3-carbonyl]-1λ^6,2-thiazolidine-1,1-dione] gave an EC50 of 0.062 µM.
The figure for `O=C(CN1CCCCS1(=O)=O)N1CC[C@@]2(S(=O)(=O)c3ccccc3)c3ccc(OCc4c(Cl)cccc4Cl)cc3CC[C@@H]12` [Example 64, 2-{2-[(3aR,9bR)-9b-(benzenesulfonyl)-7-[(2,6-dichlorophenyl)methoxy]-1H,2H,3H,3aH,4H,5H,9bH-benzo[e]indol-3-yl]-2-oxoethyl}-1λ^6,2-thiazinane-1,1-dione] is 0.921 µM; for `O=C1NC(C(=O)N2CC[C@@]3(S(=O)(=O)c4ccccc4)c4ccc(OCc5c(Cl)cccc5Cl)cc4CC[C@@H]23)CO1` (stereo partly drawn) [Example 65, 4-[(3aR,9bR)-9b-(benzenesulfonyl)-7-[(2,6-dichlorophenyl)methoxy]-1H,2H,3H,3aH,4H,5H,9bH-benzo[e]indole-3-carbonyl]-1,3-oxazolidin-2-one] it is 0.256 µM; for `O=C(O)C1CCC(C(=O)N2CC[C@@]3(S(=O)(=O)c4ccccc4)c4ccc(OCc5c(Cl)cccc5Cl)cc4CC[C@@H]23)CC1` (stereo partly drawn) [Example 66, 4-[(3aR,9bR)-9b-(benzenesulfonyl)-7-[(2,6-dichlorophenyl)methoxy]-1H,2H,3H,3aH,4H,5H,9bH-benzo[e]indole-3-carbonyl]cyclohexane-1-carboxylic acid] it is 0.272 µM.
Compound `CC(=O)NC1CC2(C1)CC(C(=O)N1CC[C@@]3(S(=O)(=O)c4ccccc4)c4ccc(OCc5c(Cl)cccc5Cl)cc4CC[C@@H]13)C2` (stereo partly drawn) [Example 67, N-{6-[(3aR,9bR)-9b-(benzenesulfonyl)-7-[(2,6-dichlorophenyl)methoxy]-1H,2H,3H,3aH,4H,5H,9bH-benzo[e]indole-3-carbonyl]spiro[3.3]heptan-2-yl}acetamide] returned an EC50 of 0.416 µM.
The figure for `CC(=O)N1CC2(CC(C(=O)N3CC[C@@]4(S(=O)(=O)c5ccccc5)c5ccc(OCc6c(Cl)cccc6Cl)cc5CC[C@@H]34)C2)C1` [Example 68, 1-{6-[(3aR,9bR)-9b-(benzenesulfonyl)-7-[(2,6-dichlorophenyl)methoxy]-1H,2H,3H,3aH,4H,5H,9bH-benzo[e]indole-3-carbonyl]-2-azaspiro[3.3]heptan-2-yl}ethan-1-one] is 0.409 µM.

Usually EC50 stands for the midpoint of the concentration-response curve. Read a low EC50 as an effect from little substance.
